In publication PMC6630718, “Discovery of Novel UV-Filters with Favorable Safety Profiles in the 5-Arylideneimidazolidine-2,4-dione Derivatives Group” (Molecules, 2019):

Columns and labels:
[1] = Ames MPF Penta 2 microplate mutagenicity assay, E. coli; format: cell-based; details: Escherichia coli, read-out: FIB (fold induction over baseline)
Procedure: (§1) The assay is a liquid microplate modification of the traditional Salmonella test. During the procedure, bacteria are exposed to different concentrations of a test compound for 90 min in a medium containing sufficient histidine (S. typhimurium) or tryptophan (E. coli) to support cell divisions. Then, the cultures are diluted in pH indicator medium lacking histidine or tryptophan and aliquoted into 48 wells of a 384-well plate. Within 48 hours, cells that have undergone reversion to amino acid prototrophy will grow into colonies. Bacterial metabolism reduces pH of the medium, changing the color of that well from purple to yellow (https://www.xenometrix.ch).
(§2) The following strains were used in the study: S. typhimurium TA98, TA100, TA1535, TA1537 and E. coli wp2 uvrA[pKM101]. TA100, TA1535 and E. coli strains are used for the detection of base substitution mutations, whereas TA98 and TA1537 are utilized for the detection of frameshift mutations. S. typhimurium strains have GC base pairs, whereas E. coli strain has AT base pair at their primary reversion site and detect certain oxidizing mutagens, cross-linking agents and hydrazines.
(§3) The test procedure provided by Xenometrix (https://www.xenometrix.ch) and described earlier was followed. Briefly, the bacterial strains were grown overnight in exposure medium and exposed to test compounds 4g and 3b in 24-well plates for 90 min at 37 °C with agitation in the absence (–S9) or presence (+S9) of 4.5% phenobarbital/ β-naphthoflavone-induced rat liver S9. Compounds 4g and 3b were dissolved in DMSO and tested at final concentrations of 0.1, 0.2 and 0.5 mM. After the preincubation, the cultures were diluted in the indicator medium and the contents of each 24-well culture were distributed into 48 wells on a 384-well plate and incubated further for 48 h at 37 °C without agitation. After the exposure, the number of wells containing bacteria was scored by eye for yellow wells. Positive and negative controls were included in the assay, and all doses were done in triplicate.
(§4) Pure DMSO was used as the negative control.
(§5) The fold increase of revertants relative to the solvent control was determined by dividing the mean number of positive wells at each dose by the solvent control at baseline. The solvent control at baseline was defined as the mean number of positive wells in the solvent control plus one standard deviation (SD). When an increase of more than 2-fold relative to the baseline at more than one dose with a dose–response is observed the sample is classified as positive, whereas when no response >2 times the baseline and no dose–response is stated the sample is negative.

[2] = In vitro stability in mouse liver microsomes; format: in vitro ADME; details: for ester hydrolysis in the presence of microsomes: independently of the presence of a NADPH-regenerating system; for Probable Transformation / half-life at 20 µM / microsomal CLint at 20 µM: mouse liver microsomes; for half-life at 20 µM / microsomal CLint at 20 µM: mouse; for half-life at 20 µM: pH 7.4, mouse liver microsomes 0.8 mg/mL, 20 µM compound, NADPH-regenerating system, 37 °C, read-out: t ½; for microsomal CLint at 20 µM: pH 7.4, mouse liver microsomes, calculated from t1/2
Procedure, shortened: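 Compound (20 µM) with mouse liver microsomes (0.8 mg/mL), potassium phosphate pH 7.4, NADPH-regenerating system, 37 °C for 15–60 min; parent remaining by UPLC/MS, two repeats. t1/2 from ln % remaining versus time; Clint = (incubation volume/protein) × 0.693/t1/2.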

[3] = Ames MPF Penta 2 microplate mutagenicity assay, TA100; format: cell-based; details: Salmonella typhimurium, read-out: FIB (fold induction over baseline)
Procedure: as §1, §2, §3, §4, §5

[4] = Ultraviolet spectroscopy in methanol solutions; format: physicochemical; details: for Absorption Range: scan range 290–400 nm
Procedure, shortened: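 Spectra recorded from 290–400 nm in methanol (50 or 25 μM) in 1 cm quartz cuvettes. εmax taken as the slope of absorbance vs. concentration over 10–50 μM or 2.5–30 μM.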

[5] = E. coli wp2 uvrA[pKM101] without S9 (–S9), E. coli WP2, –S9, 0.1 mM
[6] = E. coli wp2 uvrA[pKM101] without S9 (–S9), E. coli WP2, –S9, 0.2 mM
[7] = E. coli wp2 uvrA[pKM101] without S9 (–S9), E. coli WP2, –S9, 0.5 mM
[8] = S. typhimurium TA100 without S9 (–S9), TA100, –S9, 0.1 mM
[9] = S. typhimurium TA100 without S9 (–S9), TA100, –S9, 0.2 mM
[10] = S. typhimurium TA100 without S9 (–S9), TA100, –S9, 0.5 mM

| Structure (SMILES) | fold induction at 90 min, 0.1 mM [1, 5] | fold induction at 90 min, 0.2 mM [1, 6] | fold induction at 90 min, 0.5 mM [1, 7] | fold induction at 90 min, 0.1 mM ([1]; E. coli WP2, +S9, 0.1 mM) | fold induction at 90 min, 0.2 mM ([1]; E. coli WP2, +S9, 0.2 mM) | fold induction at 90 min, 0.5 mM ([1]; E. coli WP2, +S9, 0.5 mM) | ester hydrolysis in the presence of microsomes [2] | Probable Transformation [2] | half-life at 20 µM [2] [min] | microsomal CLint at 20 µM [2] [µL/min/mg] | fold induction at 90 min, 0.1 mM [3, 8] | fold induction at 90 min, 0.2 mM [3, 9] | fold induction at 90 min, 0.5 mM [3, 10] | fold induction at 90 min, 0.1 mM ([3]; TA100, +S9, 0.1 mM) | fold induction at 90 min, 0.2 mM ([3]; TA100, +S9, 0.2 mM) | fold induction at 90 min, 0.5 mM ([3]; TA100, +S9, 0.5 mM) | εmax [4] [M⁻¹ cm⁻¹] | λmax [4] [nm] | Absorption Range [4] |
| --- | --- | --- | --- | --- | --- | --- | --- | --- | --- | --- | --- | --- | --- | --- | --- | --- | --- | --- | --- |
| CCOC(=O)CN1C(=O)/C(=C/c2ccc(OC)cc2)N(CC(=O)OCC)C1=O [Compound 3b, Diethyl 2,2′-((Z)-4-(4-methoxybenzylidene)-2,5-dioxoimidazolidine-1,3-diyl)diacetate] | 0.3 | 0.7 | 0.3 | 0.7 | 0.6 | 0.4 | hydrolysed to monoesters | hydrolysis O-dealkylation | 12 | 75 | 1.1 | 0.8 | 0.7 | 0.7 | 0.6 | 0.6 | 16310 | 318 | 290–362 nm |
| CCOC(=O)CN1C(=O)/C(=C/C=C/c2ccc(OC)cc2)N(CC(=O)OCC)C1=O [Compound 4g, Diethyl 2,2′-((Z)-4-((E)-3-(4-methoxyphenyl)allylidene)-2,5-dioxoimidazolidine-1,3-diyl)diacetate] | 0.3 | 1.3 | 1.3 | 0.6 | 1 | 0.7 | hydrolysed to monoesters | hydrolysis O-dealkylation | 3 | > 300 | 1.1 | 0.3 | 0.6 | 0.7 | 0.5 | 0.5 | 54996 | 379 | 290–400 nm |
